The subject of series [1] is Caco-2 cells. The series is described as follows: Membrane permeability test using Caco-2 cells with preincubation. The format is in vitro ADME. The conditions noted are these: Caco-2 cells, preincubation 20 to 24 hours; apical FaSSIF/HBSS 1% DMSO pH 6.0, basal HBSS 4% BSA pH 7.4; basal sample at 180 minutes. (Caco-2 cells form a polarised layer with tight junctions and transporters.)

Assay in series [2]: as above
The format is in vitro ADME. The conditions noted are these: Caco-2; preincubation 20 to 24 hours; Apical FaSSIF/HBSS pH 6.0, Basal HBSS 4% BSA pH 7.4; 180 minutes; read-out: Caco2 Papp.

Series [3] in a line: Metabolic stability test: liver microsomal stability assay. The conditions noted are these: mouse liver microsomes 0.5 mg protein/mL, compound 1 µM; for microsomal CLint at 1 µM: male, pH 7.4, presence of NADPH, read-out: Mouse Hepatic Microsome CLh,int NADPH(+); for Mouse Hepatic Microsome CLh,int NADPH(-): absence of NADPH. Type of series: in vitro ADME, mouse.

Starred links: 1 amine or outer side, 2 acyl side, 3 side chain; linkers in the order of their positions; H or OH if unused. Positions of bridges follow the written chain, without caps; N, C: chain ends. Non-standard residues stand in square brackets, D forms with d. Residues, ends and D or L forms follow the SMILES beside them. *: point of attachment. NMeF = CN[C@@H](Cc1ccccc1)C(=O)O; NMeGABA = CN(CCCC(=O)[*:2])[*:1]; NMeI = CC[C@H](C)[C@H](NC)C(=O)O; NMeT = CN[C@H](C(=O)O)[C@@H](C)O; hPhe = N[C@@H](CCc1ccccc1)C(=O)O; NMeL = CN[C@@H](CC(C)C)C(=O)O; NMeV = CN[C@H](C(=O)O)C(C)C; NMeAbu = CC[C@H](NC)C(=O)O; NMeA = CN[C@@H](C)C(=O)O; Piperidide = C1CCN(*)CC1; Abu = CC[C@H](N)C(=O)O; Sar = CNCC(=O)O; tBu = CC(C)(C)*

For `CC[C@H](C)[C@@H]1NC(=O)[C@H](CC(C)C)N(C)C(=O)CN(C)C(=O)C[C@@H](C(=O)N2CCCCC2)NC(=O)[C@H](C)N(C)C(=O)CNC(=O)[C@H](C(C)C)N(C)C(=O)[C@H](C)N(C)C(=O)[C@H](Cc2ccccc2)N(C)C(=O)[C@H](C(C)C)NC(=O)[C@H](CC(C)C)NC(=O)[C@H](Cc2ccccc2)N(C)C(=O)[C@H]([C@@H](C)O)NC(=O)[C@H](CC(C)C)N(C)C1=O` [pd039] ([Sar][NMeL]I[NMeL]T[NMeF]LV[NMeF][NMeA][NMeV]G[NMeA]D-Piperidide; lactam N-14), the “Caco2 Papp (10^-6 cm/sec)” value in series [1] is 0.03 10^-6 cm/sec. In series [2], the Papp A→B came out at 0.03 ×10⁻⁶ cm/s. In addition, in series [3], the microsomal CLint at 1 µM turned out to be 21.4 µL/min/mg and the “Mouse Hepatic Microsome CLh,int NADPH(-)” value came out at 15.6 µL/min/mg Protein.
In the same order, the values of `CC(C)C[C@@H]1NC(=O)[C@H]([C@@H](C)O)N(C)C(=O)[C@@H](C(C)C)NC(=O)C[C@@H](C(=O)N2CCCCC2)NC(=O)[C@H](C(C)C)N(C)C(=O)[C@H](C)N(C)C(=O)[C@H](C(C)C)NC(=O)[C@H](Cc2ccccc2)N(C)C(=O)[C@@H]2CCCN2C(=O)[C@H](CC(C)C)N(C)C(=O)CN(C)C(=O)[C@H](CCc2ccccc2)NC(=O)[C@H](CC(C)C)N(C)C(=O)[C@H](C(C)C)N(C)C1=O` [pd040] ([dV][NMeT]L[NMeV][NMeL][hPhe][Sar][NMeL]P[NMeF]V[NMeA][NMeV]D-Piperidide; lactam N-14) are 0.17 10^-6 cm/sec, 0.17 ×10⁻⁶ cm/s, 24.8 µL/min/mg and 22.3 µL/min/mg Protein.
In the same order, the values of `CC[C@H](C)[C@@H]1NC(=O)[C@H](C)N(C)C(=O)[C@H]([C@@H](C)O)NC(=O)[C@H](CC(C)C)N(C)C(=O)[C@H](CC)N(C)C(=O)[C@H](Cc2ccccc2)N(C)C(=O)[C@H](C)NC(=O)[C@H](Cc2ccccc2)N(C)C(=O)[C@H](C)N(C)C(=O)[C@H](CC(C)C)N(C)C(=O)[C@H](CC(C)C)NC(=O)CCCN(C)C(=O)C[C@@H](C(=O)N2CCCCC2)NC(=O)[C@H](CC(C)C)N(C)C1=O` [pd041] ([NMeGABA]L[NMeL][NMeA][NMeF]A[NMeF][NMeAbu][NMeL]T[NMeA]I[NMeL]D-Piperidide; lactam N-14) are 0.13 10^-6 cm/sec, 0.13 ×10⁻⁶ cm/s, 25.1 µL/min/mg and 23.5 µL/min/mg Protein.
In the same order, the values of `CC[C@H](C)[C@H]1C(=O)N[C@@H](Cc2ccccc2)C(=O)N2CCC[C@H]2C(=O)N(C)[C@@H](CC(C)C)C(=O)N[C@@H](COC(C)(C)C)C(=O)N(C)[C@@H](Cc2ccccc2)C(=O)N[C@@H]([C@@H](C)O)C(=O)N(C)[C@@H](CC)C(=O)N2CCC[C@H]2C(=O)N(C)[C@@H](CC(C)C)C(=O)N[C@@H](C(C)C)C(=O)N[C@H](C(=O)N2CCCCC2)CC(=O)N(C)CCCC(=O)N(C)[C@@H](CC(C)C)C(=O)N1C` [pd042] ([NMeGABA][NMeL][NMeI]FP[NMeL]S(tBu)[NMeF]T[NMeAbu]P[NMeL]VD-Piperidide; lactam N-14) are 0.59 10^-6 cm/sec, 0.59 ×10⁻⁶ cm/s, 32.3 µL/min/mg and 18.1 µL/min/mg Protein.
Turning to `CC[C@H](C)[C@@H]1NC(=O)[C@@H]2CCCN2C(=O)[C@H](CC(C)C)N(C)C(=O)[C@H](CC(C)C)NC(=O)[C@H]([C@@H](C)CC)N(C)C(=O)[C@H]([C@@H](C)O)NC(=O)[C@H](Cc2ccccc2)N(C)C(=O)[C@H](CC)N(C)C(=O)[C@H](Cc2ccccc2)N(C)C(=O)[C@H](C(C)C)NC(=O)[C@H](CC(C)C)N(C)C(=O)[C@H](C)N(C)C(=O)C[C@@H](C(=O)N2CCCCC2)NC(=O)[C@H](C(C)C)N(C)C1=O` [pd043] ([NMeA][NMeL]V[NMeF][NMeAbu][NMeF]T[NMeI]L[NMeL]PI[NMeV]D-Piperidide; lactam N-14), in series [1], the “Caco2 Papp (10^-6 cm/sec)” value is 0.16 10^-6 cm/sec. In series [2], the Papp A→B turned out to be 0.16 ×10⁻⁶ cm/s. Besides, in series [3], the microsomal CLint at 1 µM was determined as 40.7 µL/min/mg and the “Mouse Hepatic Microsome CLh,int NADPH(-)” value came out at 34.8 µL/min/mg Protein.
With `CC[C@H](C)[C@H]1C(=O)N[C@@H]([C@@H](C)O)C(=O)N(C)CC(=O)N(C)[C@@H](CC(C)C)C(=O)N(C)[C@@H](Cc2ccccc2)C(=O)N[C@H](C(=O)N2CCCCC2)CC(=O)N(C)[C@@H](C)C(=O)N[C@@H](CC(C)C)C(=O)N(C)[C@@H](Cc2ccccc2)C(=O)N(C)[C@@H](C)C(=O)N(C)[C@@H](CC(C)C)C(=O)N[C@@H](COC(C)(C)C)C(=O)N(C)[C@@H](C)C(=O)N[C@@H](CC(C)C)C(=O)N1C` [pd044] ([NMeA]L[NMeF][NMeA][NMeL]S(tBu)[NMeA]L[NMeI]T[Sar][NMeL][NMeF]D-Piperidide; lactam N-14), the “Caco2 Papp (10^-6 cm/sec)” value in series [1] was 0.83 10^-6 cm/sec. Moreover, in series [2], the Papp A→B stood at 0.83 ×10⁻⁶ cm/s. In addition, in series [3], the microsomal CLint at 1 µM turned out to be 54.3 µL/min/mg and the “Mouse Hepatic Microsome CLh,int NADPH(-)” value turned out to be 33.1 µL/min/mg Protein.
In the same order, the values of `CC[C@H](C)[C@@H]1NC(=O)[C@H](C)N(C)C(=O)C[C@@H](C(=O)N2CCCCC2)NC(=O)[C@H](CC)N(C)C(=O)[C@H](COC(C)(C)C)NC(=O)[C@H](CC(C)C)N(C)C(=O)[C@H](C)N(C)C(=O)[C@H](CC(C)C)N(C)C(=O)[C@H](Cc2ccccc2)N(C)C(=O)CN(C)C(=O)[C@H]([C@@H](C)O)NC(=O)[C@H](CC(C)C)N(C)C(=O)[C@H](C(C)C)NC(=O)[C@H](Cc2ccccc2)N(C)C1=O` [pd045] ([NMeA]I[NMeF]V[NMeL]T[Sar][NMeF][NMeL][NMeA][NMeL]S(tBu)[NMeAbu]D-Piperidide; lactam N-14) are 0.32 10^-6 cm/sec, 0.32 ×10⁻⁶ cm/s, 43.9 µL/min/mg and 26.4 µL/min/mg Protein.
As to `CC[C@@H]1NC(=O)[C@H](C)N(C)C(=O)[C@H](CC(C)C)N(C)C(=O)[C@H]([C@@H](C)O)N(C)C(=O)[C@H](CC(C)C)N(C)C(=O)[C@H](C)NC(=O)[C@H](Cc2ccccc2)N(C)C(=O)CN(C)C(=O)C[C@@H](C(=O)N2CCCCC2)NC(=O)[C@H](C(C)C)N(C)C(=O)[C@H](C)NC(=O)[C@@H]2CCCN2C(=O)[C@H](C(C)C)NC(=O)[C@H](Cc2ccccc2)N(C)C1=O` [pd046] ([Sar][NMeF]A[NMeL][NMeT][NMeL][NMeA][Abu][NMeF]VPA[NMeV]D-Piperidide; lactam N-14), the “Caco2 Papp (10^-6 cm/sec)” value in series [1] was 0.06 10^-6 cm/sec. The Papp A→B in series [2] stood at 0.06 ×10⁻⁶ cm/s. In addition, in series [3], the microsomal CLint at 1 µM was determined as 6.2 µL/min/mg and the “Mouse Hepatic Microsome CLh,int NADPH(-)” value was 5.4 µL/min/mg Protein.
In the same order, the values of `CC(C)C[C@H]1C(=O)N2CCC[C@H]2C(=O)N(C)[C@@H](Cc2ccccc2)C(=O)N[C@@H](C(C)C)C(=O)N(C)[C@@H](C)C(=O)N(C)[C@@H](C(C)C)C(=O)N[C@H](C(=O)N2CCCCC2)CC(=O)N[C@H](C(C)C)C(=O)N(C)[C@@H]([C@@H](C)O)C(=O)N(C)[C@@H](CC(C)C)C(=O)N(C)[C@@H](C(C)C)C(=O)N(C)[C@@H](CC(C)C)C(=O)N[C@@H](CCc2ccccc2)C(=O)N(C)CC(=O)N1C` [pd047] ([dV][NMeT][NMeL][NMeV][NMeL][hPhe][Sar][NMeL]P[NMeF]V[NMeA][NMeV]D-Piperidide; lactam N-14) are 0.16 10^-6 cm/sec, 0.16 ×10⁻⁶ cm/s, 41.4 µL/min/mg and 30.0 µL/min/mg Protein.

For the origin of these results see patent EP4768499A1, “MACROCYCLIC PEPTIDE COMPOUND HAVING CELL MEMBRANE PERMEABILITY AND METABOLIC STABILITY, AND LIBRARY CONTAINING SAME” (Chugai Seiyaku Kabushiki Kaisha, priority 2023, dated 2025).
